Test results: patent publication US9987276B2 (Celgene CAR LLC, priority 2008, dated 2018)
Where two headings read alike, the source gives them in different places.

Legend:
[1] = molecular target: EGFR-WT (Homo sapiens (Human), UniProt P00533); experiment: Omnia assay for potency assessment against EGFR (WT)
[2] = molecular target: ITK (Homo sapiens (Human), UniProt Q08881); experiment: Omnia assay for potency assessment against active forms of ITK kinase; format: biochemical; settings: [ITK]=10 nM, [ATP]=25, [Y6-Sox]=10 μM; read-out: ITK Inhibition
ITK, sequence (Q08881 whole entry): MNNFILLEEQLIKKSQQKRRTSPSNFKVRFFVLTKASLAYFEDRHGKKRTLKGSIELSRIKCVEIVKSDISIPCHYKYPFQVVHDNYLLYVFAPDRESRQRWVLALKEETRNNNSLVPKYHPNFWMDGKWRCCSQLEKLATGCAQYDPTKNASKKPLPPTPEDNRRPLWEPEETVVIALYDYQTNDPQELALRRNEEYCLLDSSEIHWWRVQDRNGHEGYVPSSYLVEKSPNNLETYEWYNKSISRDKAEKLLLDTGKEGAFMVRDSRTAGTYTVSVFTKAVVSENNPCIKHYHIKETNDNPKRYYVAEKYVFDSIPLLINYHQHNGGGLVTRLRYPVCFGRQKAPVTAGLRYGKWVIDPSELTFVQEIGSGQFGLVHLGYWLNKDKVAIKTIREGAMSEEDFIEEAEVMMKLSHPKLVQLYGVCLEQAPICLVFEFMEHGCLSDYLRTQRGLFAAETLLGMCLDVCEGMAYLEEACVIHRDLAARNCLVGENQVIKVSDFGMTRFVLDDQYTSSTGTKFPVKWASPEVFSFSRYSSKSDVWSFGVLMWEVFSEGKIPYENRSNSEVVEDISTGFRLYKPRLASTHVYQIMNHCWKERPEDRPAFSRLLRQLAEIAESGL
Experimental: [ITK]=10 nM, [ATP]=25 [Y6-Sox]=10 μM (ATP KMapp=33 μM).

[3] = molecular target: BTK (Homo sapiens (Human), UniProt Q06187); experiment: Omnia assay for potency assessment against BTK; format: biochemical; settings: [BTK]=5 nM, Omnia assay; read-out: BTK Inhibition (IC50)
BTK, sequence (Q06187 whole entry): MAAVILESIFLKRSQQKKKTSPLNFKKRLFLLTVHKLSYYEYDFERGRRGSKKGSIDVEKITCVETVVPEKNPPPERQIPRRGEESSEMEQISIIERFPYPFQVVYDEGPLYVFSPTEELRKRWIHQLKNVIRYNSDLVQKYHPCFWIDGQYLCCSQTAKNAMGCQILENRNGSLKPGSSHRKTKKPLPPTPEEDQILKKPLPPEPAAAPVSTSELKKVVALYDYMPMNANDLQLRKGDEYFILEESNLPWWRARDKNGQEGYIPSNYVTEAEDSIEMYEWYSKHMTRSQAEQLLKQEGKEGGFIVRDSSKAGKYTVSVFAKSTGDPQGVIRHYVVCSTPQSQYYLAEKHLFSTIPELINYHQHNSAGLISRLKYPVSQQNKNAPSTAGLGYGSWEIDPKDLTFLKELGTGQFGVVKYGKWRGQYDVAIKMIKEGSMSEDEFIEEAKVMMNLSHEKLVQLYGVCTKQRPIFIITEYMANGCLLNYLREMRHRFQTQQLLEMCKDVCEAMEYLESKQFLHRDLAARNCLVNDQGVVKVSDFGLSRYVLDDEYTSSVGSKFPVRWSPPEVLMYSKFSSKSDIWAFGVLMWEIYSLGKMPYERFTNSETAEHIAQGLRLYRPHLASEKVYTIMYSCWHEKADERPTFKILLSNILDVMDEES
Experimental: The modified BTK-optimized reagent conditions for the above protocol are:
[BTK]=5 nM, [ATP]=[…], [Y5-Sox]=[…] (ATP KMapp˜[…]).

[4] = read-out: EGFR (wild type inhibition), EGFR wild type

EGFR-WT, sequence (P00533 668-1210): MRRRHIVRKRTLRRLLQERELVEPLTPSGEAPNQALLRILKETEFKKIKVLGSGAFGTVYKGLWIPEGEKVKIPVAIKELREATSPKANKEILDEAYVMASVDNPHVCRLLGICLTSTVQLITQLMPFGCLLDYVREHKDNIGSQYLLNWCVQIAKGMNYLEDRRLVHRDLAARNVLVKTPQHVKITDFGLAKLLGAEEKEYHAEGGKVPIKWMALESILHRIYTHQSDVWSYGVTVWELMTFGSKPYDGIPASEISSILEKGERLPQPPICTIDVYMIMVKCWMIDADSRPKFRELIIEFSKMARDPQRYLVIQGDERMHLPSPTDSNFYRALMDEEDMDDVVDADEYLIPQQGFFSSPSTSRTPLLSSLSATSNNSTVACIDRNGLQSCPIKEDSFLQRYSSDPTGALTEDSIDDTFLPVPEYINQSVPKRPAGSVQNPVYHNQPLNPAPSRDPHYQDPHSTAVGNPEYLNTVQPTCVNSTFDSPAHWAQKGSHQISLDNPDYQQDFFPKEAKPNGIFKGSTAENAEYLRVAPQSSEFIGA

Row | Compound | IC50 [1] [nM] | IC50 [2] [nM] | IC50 [3] [nM] | IC50 [1, 4] [nM]
1 | C=C(C)C(=O)c1cccc(Nc2nc(Nc3cccc(OC(F)(F)F)c3)ncc2F)c1 [Compound I-199, 1-(3-(5-fluoro-2-(3-(trifluoromethoxy)phenylamino)pyrimidin-4-ylamino)phenyl)-2-methylprop-2-en-1-one] | 10 to 100 | 10 to 100 | < 10 | –
2 | C=CC(=O)Nc1cccc(Nc2nc(Nc3cccc(OCC4CCCN(C)C4)c3)ncc2F)c1 (centres unmarked) [Compound I-76, N-(3-(5-fluoro-2-(3-((1-methylpiperidin-3-yl)methoxy)phenylamino)pyrimidin-4-ylamino)phenyl)-acrylamide] | – | < 10 | < 10 | < 10
3 | N^1-(2-(2-(4-(4-(3-acrylamidophenylamino)-5-fluoropyrimidin-2-ylamino)-2-fluorophenoxy)ethoxy)ethyl)-N^5-(15-oxo-18-((3aR,4R,6aS)-2-oxohexahydro-1H-thieno[3,4-d]imidazol-4-yl)-4,7,10-trioxa-14-azaoctadecyl)glutaramide [Compound I-362] | – | 10 to 100 | < 10 | –
4 | C=CC(=O)NCc1cccc(Nc2nc(Nc3ccccc3)ncc2C)c1 [Compound I-205, N-(3-(5-methyl-2-(phenylamino)pyrimidin-4-ylamino)benzyl)acrylamide] | 10 to 100 | – | 10 to 100 | –
5 | Cc1cccc(Nc2nc(Nc3cccc(NC(=O)/C=C/CN4C[C@@H](C)N[C@@H](C)C4)c3)ncc2F)c1 [Compound I-119, (E)-4-((3R,5S)-3,5-dimethylpiperazin-1-yl)-N-(3-(5-fluoro-4-(m-tolylamino)pyrimidin-2-ylamino)phenyl)but-2-enamide] | 100 to 1000 | – | 10 to 100 | –
6 | C=CC(=O)N1CC(Nc2nc(Nc3ccc(OC)nc3)ncc2C(C)=O)C1 [Compound I-187, 1-{3-[5-Acetyl-2-(6-methoxy-pyridin-3-ylamino)-pyrimidin-4-ylamino]-azetidin-1-yl}-propenone] | 100 to 1000 | – | 10 to 100 | –
7 | Cc1cccc(Nc2nc(Nc3cccc(NC(=O)/C=C/CN4CC[C@@H](O)C4)c3)ncc2F)c1 [Compound I-104, (R,E)-N-(3-(5-fluoro-4-(m-tolylamino)pyrimidin-2-ylamino)phenyl)-4-(3-hydroxypyrrolidin-1-yl)but-2-enamide] | – | – | < 10 | < 10
8 | C/C=C/C(=O)OCc1ccc(Nc2nc(Nc3ccccc3)ncc2C)cc1 [Compound I-60, (E)-4-(5-methyl-2-(phenylamino)pyrimidin-4-ylamino) benzyl but-2-enoate] | – | – | 100 to 1000 | 1000 to 10000
9 | C=CC(=O)N1CCC[C@H](Oc2nc(Nc3ccc(OC)nc3)ncc2F)C1 [Compound I-193, (S)-1-(3-(5-fluoro-2-(6-methoxypyridin-3-ylamino)pyrimidin-4-yloxy)piperidin-1-yl)prop-2-en-1-one] | – | – | 100 to 1000 | 1000 to 10000
10 | C=CC(=O)Nc1cccc(Nc2nc(Nc3ccc(Cl)c(O[C@@H]4CCOC4)c3)ncc2F)c1 [Compound I-341, (R)—N-(3-(2-(4-chloro-3-(tetrahydrofuran-3-yloxy)phenylamino)-5-fluoropyrimidin-4-ylamino)phenyl)acrylamide] | 100 to 1000 | – | < 10 | –
11 | CC(C)=CC(=O)c1ccc(Nc2nc(Nc3ccccc3)ncc2F)cc1 [Compound I-206, 1-(4-(5-fluoro-2-(phenylamino)pyrimidin-4-ylamino)phenyl)-3-methylbut-2-en-1-one] | – | – | > 10000 | 1000 to 10000
12 | C=CC(=O)N(C)Cc1ccc(Oc2nc(Nc3cccc(OCCN4CCCC4=O)c3)ncc2F)cc1 [Compound I-146, N-(4-(5-fluoro-2-(3-(2-(2-oxopyrrolidin-1-yl)ethoxy)phenylamino)pyrimidin-4-yloxy)benzyl)-N-methylacrylamide] | – | 10 to 100 | < 10 | –
13 | C=CC(=O)N1CCC[C@H](Oc2nc(Nc3cccc(OC)c3)ncc2F)C1 [Compound I-179, (S)-1-(3-(5-fluoro-2-(3-methoxyphenylamino)pyrimidin-4-yloxy)piperidin-1-yl)prop-2-en-1-one] | > 10000 | – | 100 to 1000 | –
14 | C=CC(=O)Nc1cccc(Oc2nc(Nc3cccc(OCC4CCCN(C)C4)c3)ncc2F)c1 (centres unmarked) [Compound I-81, N-(3-(5-fluoro-2-(3-((1-methylpiperidin-3-yl)methoxy)phenylamino)pyrimidin-4-yloxy)phenyl)acrylamide] | – | – | < 10 | < 10
15 | C=CC(=O)N1CCC[C@@H](Nc2nc(Nc3ccc(O[C@@H]4CCOC4)cc3)ncc2F)C1 [Compound I-348, 1-((R)-3-(5-fluoro-2-(4-((R)-tetrahydrofuran-3-yloxy)phenylamino)pyrimidin-4-ylamino)piperidin-1-yl)prop-2-en-1-one] | 10 to 100 | – | < 10 | –

Next, values leading:

Row | IC50 [1] [nM] | IC50 [2] [nM] | IC50 [3] [nM] | IC50 [1, 4] [nM] | Compound
16 | 10 to 100 | 10 to 100 | – | – | C=CC(=O)Nc1cccc(Nc2nc(Nc3cccc(OCCCS(C)(=O)=O)c3)ncc2F)c1 [Compound I-138, 4-(3-acrylamidophenylamino)-5-fluoro-2-(3-(3-(methylsulfonyl)propoxy)phenylamino)-pyrimidine]
17 | 10 to 100 | 10 to 100 | < 10 | – | C=CC(=O)Nc1cccc(Nc2nc(Nc3cccc(OC(C)(C)CO)c3)ncc2F)c1 [Compound I-91, N-(3-(5-fluoro-2-(3-(1-hydroxy-2-methylpropan-2-yloxy)phenylamino)pyrimidin-4-ylamino)phenyl)acrylamide]
18 | – | < 10 | < 10 | – | C=CC(=O)Nc1cccc(Nc2nc(Nc3ccc(OCC(C)(C)O)cc3)ncc2F)c1 [Compound I-73, N-(3-(5-fluoro-2-(4-(2-hydroxy-2-methylpropoxy)phenylamino)pyrimidin-4-ylamino)phenyl)acrylamide]
19 | 100 to 1000 | – | < 10 | – | C=CC(=O)N(C)Cc1ccc(Nc2nc(Nc3cccc(OC)c3)ncc2F)cc1 [Compound I-113, N-(4-(5-fluoro-2-(3-methoxyphenylamino)pyrimidin-4-ylamino)benzyl)-N-methylacrylamide]
20 | 100 to 1000 | – | < 10 | – | C=CC(=O)Nc1cccc(Nc2nc(Nc3ccc(Cl)c(O[C@H](C)CO)c3)ncc2F)c1 [Compound I-358, (R)—N-(3-(2-(4-chloro-3-(1-hydroxypropan-2-yloxy)phenylamino)-5-fluoropyrimidin-4-ylamino)phenyl)acrylamide]
21 | 10 to 100 | – | < 10 | – | C=CC(=O)Nc1cccc(Nc2nc(Nc3ccc4c(c3)N(C(C)=O)CCO4)ncc2F)c1 [Compound I-112, N-(3-(2-(4-acetyl-2,3-dihydrobenzo[1,4]oxazin-6-yl)amino-5-fluoropyrimidin-4-ylamino)phenyl)acrylamide]
22 | 100 to 1000 | – | < 10 | – | C=CC(=O)Nc1ccc(Nc2nc(Nc3ccc(OCCOC)c(F)c3)ncc2F)cc1 [Compound I-351, N-(4-(5-fluoro-2-(3-fluoro-4-(2-methoxyethoxy)phenylamino)pyrimidin-4-ylamino)phenyl)acrylamide]
23 | 10 to 100 | 10 to 100 | – | – | C=CC(=O)Nc1cccc(Nc2nc(Nc3ccc(OCC(C)(C)O)c(F)c3)ncc2F)c1 [Compound I-315, N-(3-(5-fluoro-2-(3-fluoro-4-(2-hydroxy-2-methylpropoxy)phenylamino)pyrimidin-4-ylamino)phenyl)acrylamide]
24 | – | – | < 10 | < 10 | C=CC(=O)Nc1cccc(Nc2nc(Nc3ccc(OCC(O)CO)c(F)c3)ncc2F)c1 (centres unmarked) [Compound I-334, N-(3-(2-(4-(2,3-dihydroxypropoxy)-3-fluorophenylamino)-5-fluoropyrimidin-4-ylamino)phenyl)acrylamide]
25 | – | – | < 10 | < 10 | C=CC(=O)Nc1cccc(Nc2nc(Nc3ccc(OCCOC)cc3)ncc2C#N)c1 [Compound I-109, N-(3-(5-cyano-2-(4-(2-methoxyethoxy)phenylamino)pyrimidin-4-ylamino)phenyl)acrylamide]
26 | 100 to 1000 | – | < 10 | – | C=C(C#N)C(O)c1cccc(Nc2nc(Nc3ccc(OCCOC)c(F)c3)ncc2F)c1 (centres unmarked) [Compound I-326, 2-((3-(5-fluoro-2-(3-fluoro-4-(2-methoxyethoxy)phenylamino)pyrimidin-4-ylamino)phenyl)(hydroxy)methyl)acrylonitrile]
27 | 100 to 1000 | – | 10 to 100 | – | C=CC(=O)Nc1ccc(Nc2nc(Nc3cncc(OC)c3)ncc2C(F)(F)F)cc1 [Compound I-214, N-(4-(5-trifluoromethyl-2-(5-methoxypyridin-3-ylamino)pyrimidin-4-ylamino)phenyl)acrylamide]
28 | 100 to 1000 | – | < 10 | – | C=CC(=O)N1CCC[C@@H](Nc2nc(Nc3ccc(OCCOC)c(F)c3)ncc2F)C1 [Compound I-344]
29 | 10 to 100 | 10 to 100 | – | – | C=CC(=O)Nc1cccc(Nc2nc(Nc3cccc(OCCCn4ccnc4)c3)ncc2F)c1 [Compound I-204, N-(3-(2-(3-(3-(1H-imidazol-1-yl)propoxy)phenylamino)-5-fluoropyrimidin-4-ylamino)phenyl)acrylamide]
30 | – | – | < 10 | < 10 | C=C(C)C(=O)Cc1cccc(Nc2nc(Nc3ccc(OCCOC)c(F)c3)ncc2F)c1 [Compound I-328, 1-(3-(5-fluoro-2-(3-fluoro-4-(2-methoxyethoxy)phenylamino)pyrimidin-4-ylamino)phenyl)-3-methylbut-3-en-2-one]
31 | 10 to 100 | – | < 10 | – | C=C(C#N)C(O)c1ccc(Nc2nc(Nc3ccc(OCCOC)c(F)c3)ncc2F)cc1 (centres unmarked) [Compound I-327, 2-((4-(5-fluoro-2-(3-fluoro-4-(2-methoxyethoxy)phenylamino)pyrimidin-4-ylamino)phenyl)(hydroxy)methyl)acrylonitrile]
